Laboratory results taken from article PMC12435401 (Chemistry & Biodiversity, 2025).

Target: acetylcholinesterase (AChE) (Electrophorus electricus, UniProt O42275)
Test: Ellman's assay with AChE isolated from Electrophorus electricus
Format: biochemical

acetylcholinesterase (AChE), sequence (O42275 24-633): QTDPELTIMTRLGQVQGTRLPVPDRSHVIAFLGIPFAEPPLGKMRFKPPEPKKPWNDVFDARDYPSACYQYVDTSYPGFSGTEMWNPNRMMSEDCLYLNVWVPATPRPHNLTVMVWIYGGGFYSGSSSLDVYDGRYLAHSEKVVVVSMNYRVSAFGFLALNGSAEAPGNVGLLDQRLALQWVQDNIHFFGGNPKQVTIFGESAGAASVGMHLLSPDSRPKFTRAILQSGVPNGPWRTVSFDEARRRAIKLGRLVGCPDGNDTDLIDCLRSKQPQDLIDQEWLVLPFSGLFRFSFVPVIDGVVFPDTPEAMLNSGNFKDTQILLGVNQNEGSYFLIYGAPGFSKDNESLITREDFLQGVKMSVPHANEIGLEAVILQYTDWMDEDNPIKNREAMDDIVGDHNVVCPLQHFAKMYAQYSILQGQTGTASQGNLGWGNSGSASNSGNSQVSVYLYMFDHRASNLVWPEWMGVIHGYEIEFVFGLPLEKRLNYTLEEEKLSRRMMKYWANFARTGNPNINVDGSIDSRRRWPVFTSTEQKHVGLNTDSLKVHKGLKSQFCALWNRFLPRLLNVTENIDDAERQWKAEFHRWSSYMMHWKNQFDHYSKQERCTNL

C[C@@H]1CC(=O)O[C@H]2C[C@@]3(C)[C@@H]4CC[C@H]5C(C)(C)C(=O)CC[C@@]56C[C@@]46CC[C@]3(C)[C@@H]12 [compound 6]
IC50: 53.5 ± 2.53 µM
